Measured values as given in patent publication US10723707B2, “Heterocyclic substituted 2-amino quinazoline derivatives for the treatment of viral infections” (JANSSEN SCIENCES IRELAND UNLIMITED COMPANY, priority 2012, dated 2020).

Columns and labels:
Type in all cases: cell-based
human TLR8 = target: T1, human TLR8 (Homo sapiens, UniProt Q9NR97); test: TLR8 cellular NFκB-luc reporter assay in transiently transfected HEK293 cells; conditions: lowest effective concentration, 6 hours incubation
T1 construct: expressed in transfected cells; host or cells: HEK293
T1 sequence (Q9NR97 27-1041): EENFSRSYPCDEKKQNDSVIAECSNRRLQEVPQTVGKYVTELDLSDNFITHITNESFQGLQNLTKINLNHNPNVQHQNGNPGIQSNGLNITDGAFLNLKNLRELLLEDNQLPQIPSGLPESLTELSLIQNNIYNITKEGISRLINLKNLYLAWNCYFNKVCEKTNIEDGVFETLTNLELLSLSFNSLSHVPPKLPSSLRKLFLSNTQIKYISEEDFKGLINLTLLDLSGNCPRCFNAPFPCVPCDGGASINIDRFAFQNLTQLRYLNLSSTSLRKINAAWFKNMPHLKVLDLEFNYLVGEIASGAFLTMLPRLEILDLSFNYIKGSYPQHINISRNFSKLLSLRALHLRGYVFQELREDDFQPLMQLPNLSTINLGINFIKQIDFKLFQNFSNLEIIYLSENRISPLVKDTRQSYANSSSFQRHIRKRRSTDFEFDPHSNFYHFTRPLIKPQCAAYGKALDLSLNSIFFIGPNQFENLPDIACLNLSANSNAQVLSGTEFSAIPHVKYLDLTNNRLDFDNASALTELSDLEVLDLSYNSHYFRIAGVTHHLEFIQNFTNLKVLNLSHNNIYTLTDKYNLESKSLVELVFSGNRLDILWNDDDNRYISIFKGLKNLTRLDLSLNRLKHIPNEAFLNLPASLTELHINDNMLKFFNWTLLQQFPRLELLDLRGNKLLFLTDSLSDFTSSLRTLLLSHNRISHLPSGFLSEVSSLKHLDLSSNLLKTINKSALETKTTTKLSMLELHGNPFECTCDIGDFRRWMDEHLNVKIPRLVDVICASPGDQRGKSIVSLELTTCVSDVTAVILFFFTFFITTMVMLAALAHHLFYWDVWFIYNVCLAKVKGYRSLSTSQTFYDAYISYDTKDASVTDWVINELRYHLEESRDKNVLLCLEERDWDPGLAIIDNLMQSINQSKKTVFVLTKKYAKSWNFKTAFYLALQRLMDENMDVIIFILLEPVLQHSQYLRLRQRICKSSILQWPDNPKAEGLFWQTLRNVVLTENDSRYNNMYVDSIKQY
Experimental: (§1) The ability of compounds to activate human TLR7 and/or TLR8 was assessed in a cellular reporter assay using HEK293 cells transiently transfected with a TLR7 or TLR8 expression vector and NFκB-luc reporter construct.
(§2) Briefly, HEK293 cells were grown in culture medium (DMEM supplemented with 10% FCS and 2 mM Glutamine). For transfection of cells in 15 cm dishes, cells were detached with Trypsin-EDTA, transfected with a mix of CMV-TLR7 or TLR8 plasmid (1700 ng), NFκB-luc plasmid (850 ng) and a transfection reagent and incubated for 48 h at 37° C. in a humidified 5% CO2 atmosphere. Transfected cells were then washed in PBS, detached with Trypsin-EDTA and resuspended in medium to a density of 1.25×10^5 cells/mL. Forty microliters of cells were then dispensed into each well in 384-well plates, where 200 nL of compound in 100% DMSO was already present. Following 6 hours incubation at 37° C., 5% CO2, the luciferase activity was determined by adding 15 μL of Steady Lite Plus substrate (Perkin Elmer) to each well and readout performed on a ViewLux ultraHTS microplate imager (Perkin Elmer). Dose response curves were generated from measurements performed in quadruplicates. Lowest effective concentrations (LEC) values, defined as the concentration that induces an effect which is at least two fold above the standard deviation of the assay, were determined for each compound.

[1] = test system: interferon-stimulated responsive elements (ISRE); test: Activation of ISRE promoter elements in HEK-ISREluc cells by conditioned media from PBMC; conditions: Homo sapiens, compound concentration applied to PBMCs, supernatant transferred to HEK-ISREluc cells, 24 hours, read-out: HEK-ISRE luc (LEC)
Experimental: The potential of compounds to induce IFN-I was also evaluated by measuring the activation of interferon-stimulated responsive elements (ISRE) by conditioned media from PBMC. The ISRE element of sequence GAAACTGAAACT (SEQ ID: 1) is highly responsive to the STAT1-STAT2-IRF9 transcription factor, activated upon binding of IFN-I to their receptor IFNAR (Clontech, PT3372-5W). The plasmid pISRE-Luc from Clontech (ref. 631913) contains 5 copies of this ISRE element, followed by the firefly luciferase ORF. A HEK293 cell line stably transfected with pISRE-Luc (HEK-ISREluc) was established to profile the conditioned PBMC cell culture media.
Briefly, PBMCs were prepared from buffy coats of at least two donors using a standard Ficoll centrifugation protocol. Isolated PBMCs were resuspended in RPMI medium supplemented with 10% human AB serum and 2×10^5 cells/well were dispensed into 384-well plates containing compounds (70 μL total volume). After overnight incubation, 10 μL of supernatant was transferred to 384-well plates containing 5×10^3 HEK-ISREluc cells/well in 30 μL (plated the day before). Following 24 hours of incubation, activation of the ISRE elements was measured by assaying luciferase activity using 40 μL/well Steady Lite Plus substrate (Perkin Elmer) and measured with ViewLux ultraHTS microplate imager (Perkin Elmer). The stimulating activity of each compound on the HEK-ISREluc cells was reported as LEC value, defined as the compound concentration applied to the PBMCs resulting in a luciferase activity at least two fold above the standard deviation of the assay. The LEC in turn indicates the degree of ISRE activation on transfer of a defined amount of PBMC culture medium. Recombinant interferon α-2a (Roferon-A) was used as a standard control compound.

human TLR7 = target: T2, human TLR7 (Homo sapiens, UniProt Q9NYK1); test: TLR7 cellular NFκB-luc reporter assay in transiently transfected HEK293 cells; conditions: lowest effective concentration, 6 hours incubation
T2 construct: expressed in transfected cells; host or cells: HEK293
T2 sequence (Q9NYK1 27-1049): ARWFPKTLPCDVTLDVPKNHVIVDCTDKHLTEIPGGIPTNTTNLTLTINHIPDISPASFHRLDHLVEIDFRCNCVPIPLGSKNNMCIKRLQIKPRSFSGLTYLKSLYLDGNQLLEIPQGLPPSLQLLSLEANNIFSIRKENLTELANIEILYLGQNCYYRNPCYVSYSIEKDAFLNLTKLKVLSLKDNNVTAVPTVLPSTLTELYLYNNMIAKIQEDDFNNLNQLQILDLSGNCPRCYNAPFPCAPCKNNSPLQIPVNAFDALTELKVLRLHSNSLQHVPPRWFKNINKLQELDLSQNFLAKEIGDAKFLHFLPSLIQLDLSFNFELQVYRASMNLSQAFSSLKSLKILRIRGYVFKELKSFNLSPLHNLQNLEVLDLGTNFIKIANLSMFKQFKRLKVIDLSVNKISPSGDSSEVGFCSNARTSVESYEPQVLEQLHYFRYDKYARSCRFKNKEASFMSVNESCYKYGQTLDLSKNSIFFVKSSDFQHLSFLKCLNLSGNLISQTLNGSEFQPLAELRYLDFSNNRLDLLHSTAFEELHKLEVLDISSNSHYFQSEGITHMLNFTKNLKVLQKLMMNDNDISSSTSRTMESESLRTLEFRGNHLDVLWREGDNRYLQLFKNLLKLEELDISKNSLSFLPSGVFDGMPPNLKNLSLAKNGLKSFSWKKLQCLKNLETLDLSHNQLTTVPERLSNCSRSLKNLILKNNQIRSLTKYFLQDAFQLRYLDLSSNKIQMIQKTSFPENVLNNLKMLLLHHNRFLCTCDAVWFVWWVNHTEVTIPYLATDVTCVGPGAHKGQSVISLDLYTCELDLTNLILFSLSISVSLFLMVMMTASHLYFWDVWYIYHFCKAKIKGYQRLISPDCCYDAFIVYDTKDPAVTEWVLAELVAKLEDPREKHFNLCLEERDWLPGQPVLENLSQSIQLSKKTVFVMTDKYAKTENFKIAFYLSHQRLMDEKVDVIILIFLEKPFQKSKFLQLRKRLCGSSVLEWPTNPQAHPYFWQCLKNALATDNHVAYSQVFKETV
Experimental: as §1, §2

SMILES | Human TLR 8 (LEC) (human TLR8) | minimal effective concentration [1] | Human TLR 7 (LEC) (human TLR7)
COc1cccc2nc(N)nc(N[C@@H](C)[C@H](O)c3ccccc3)c12 [Compound 15] | >25 µM | 0.56 µM | 0.61 µM
CC(Nc1nc(N)nc2cc(C(=O)N(C)C(C)C)ccc12)c1ccccn1 (stereo not drawn) [Compound 24] | 11.0 µM | 1.75 µM | 14.3 µM
COc1cccc2nc(N)nc(N[C@H](C)c3cccc(C)n3)c12 (single isomer, unassigned) [Compound 20] | >25 µM | 0.62 µM | 1.46 µM
C[C@@H](Nc1nc(N)nc2cc(Cl)ccc12)c1ccccn1 (single isomer, unassigned) [Compound 7] | 16.4 µM | 0.38 µM | 0.82 µM
C[C@H](Nc1nc(N)nc2cccc(F)c12)c1ccccn1 (single isomer, unassigned) [Compound 18] | 24.3 µM | 7.83 µM | 8.25 µM
Cc1cc(CNc2nc(N)nc3c(F)cccc23)no1 [Compound 14] | >25 µM | 0.13 µM | 0.65 µM
Cc1cc(CNc2nc(N)nc3cccc(CO)c23)no1 [Compound 30] | 9.0 µM | 0.14 µM | 0.63 µM
COc1ccc(F)c2nc(N)nc(NCc3cc(C)on3)c12 [Compound 31] | >25 µM | 0.46 µM | 0.74 µM
COc1cccc2nc(N)nc(NCc3cc(C)on3)c12 [Compound 12] | 1.94 µM | 0.036 µM | 0.047 µM
